Data as given in patent publication EP0961591B1, “METHOD TO ENHANCE TISSUE AC[…] RADIOLABELED COMPOUNDS” (BOARD OF SUPERVISORS OF LOUISIANA STATE UNIVERSITY AND …, priority 1997, dated 1999).
Where “and” joins values, the source holds several entries; their conditions need not be identical. Identical values can stand only once. Like-named read-outs stand apart in the source and are kept apart here.

What was measured:
DNA of IMR-32 cells = experiment: Binding to nuclear DNA (DNA extraction, gamma counting); assay type: cell-based, human; conditions: for Radioligand (CPM ± SD), Non-Decay Corrected: 100 µg DNA, IMR-32 (SST-2 positive); for % Specifically Bound / CPM Specifically Bound (Difference), Non-Decay Corrected / Radioligand (CPM ± SD), Decay Corrected Values / SPM Specifically Bound (Difference), Decay Corrected Values / Radioligand + Unlabeled Ligand (CPM ± SD), Decay Corrected Values / Radioligand + Unlabeled Ligand (CPM ± SD), Non-Decay Corrected: IMR-32 DNA; for Radioligand + Unlabeled Ligand (CPM ± SD), Decay Corrected Values / Radioligand + Unlabeled Ligand (CPM ± SD), Non-Decay Corrected: + octreotide acetate
Method: (§1) Cells were removed from the culture surface using a sterile rubber policeman. The suspended cells were washed three times in cold Dulbecco's phosphate buffered saline and processed through a DNA extraction procedure according to the vendor's directions (GenomicPrep® cells and Tissue DNA Isolation Kit, Pharmacia Biotech, Piscataway, NJ). The cells were incubated in the Cell Lysis Solution of the DNA isolation kit at 37°C for 10 minutes. Next, 3 µl of the Rnase Solution was added to the cell lysate, followed by thorough mixing and incubation at 37°C for 1 hour. The samples were cooled to room temperature, and 200 µl of the Protein Precipitation Solution were added. Following vortexing, the contents of each tube were centrifuged at 14,000 x g for 1 min, and the DNA pellet was washed with 70% ethanol. Following drying the DNA was hydrated in a DNA Hydration Solution, and the concentration of DNA determined by spectrometry at 260 nm. One hundred microgram (100 µg) quantities of each treatment were transferred to radioactive counting vials, and the amount of radioactivity associated with each was measured in a Beckman 5500 gamma counter. The data, as presented in Table 6, were obtained as counts per minute (cpm). The differences between radioactivity measured in cells incubated solely with radioligand and in cells incubated with both radioligand and unlabeled ligand were statistically analyzed using ANOVA.
(§2) Additionally, the DNA from each flask was divided in half, and 1 mg of DNA from each flask was treated with proteinase-K (Lite Technologies, Gaithersburg, MD) for 1 hour at 37°C. The enzyme-treated DNA was then reprecipitated with ethanol and sodium acetate, washed with cold ethanol, and redissolved in DNA hydration solution. The concentration was determined by spectrophotometry at 260 nm. One hundred microgram (100 µg) of protease-treated DNA and an equal quantity of untreated DNA were transferred to radioactive counting vials and the amount of radioactivity measured in a Beckman 5500 gamma counter, as described above. The data, as presented in Table 7 and Figure 13, were obtained as counts per minute (cpm).

DNA of SKNSH cells = experiment: as above; assay type: cell-based, human; conditions: for Radioligand (CPM ± SD), Non-Decay Corrected: 100 µg DNA, SKNSH (SST-2 negative); for % Specifically Bound / CPM Specifically Bound (Difference), Non-Decay Corrected / Radioligand + Unlabeled Ligand (CPM ± SD), Non-Decay Corrected: SKNSH DNA; for Radioligand + Unlabeled Ligand (CPM ± SD), Non-Decay Corrected: + octreotide acetate
Method: as §1, §2

[1] = system: tumor in the left side of the neck
Method: During and after each administration of the last eight doses, a tumor in the left side of the neck was monitored for radioligand uptake with an ion chamber survey meter, a Victoreen 450P ion chamber, which measures external gamma dose rates. Administration of the initial seven doses were by bolus injection. The last three doses were delivered by infusion with various activities of radioligand.
The external gamma dose rates from radioligand accumulation in the neck tumor area were measured immediately and 24 hr after injection.
Four months after the final bolus dose, the first dose by infusion ("Infusion 1") was administered. A dose equivalent to the previous bolus dose (175.9 mCi) was given, but the radioligand was administered by infusion over 72 hr at a constant rate of 2.5 mCi/hr.
One month later, in "Infusion 2," the total dose was increased to 389.2 mCi. By infusion, 189.8 mCi of the radioligand was given over the first 24 hr, 108.6 mCi over the second 24 hr, and 90.8 mCi over the third 24 hr. For each 24 hr period, the infusion rate was kept constant.
One month later, a third dose was administered by infusion ("Infusion 3"). A dose of 301 mCi was infused the first 24 hr period. In two subsequent 24 hr periods, 25 and 21 mCi were infused.

[2] = 100µg DNA, mean of three experiments
[3] = 100µg DNA, proteinase-K, mean of three experiments
[4] = 100µg DNA, single replicate experiments

Q: What does the source list for “(^111In-DTPA-D-Phe^1)-octreotide [^111In-pentetreotide]”?
A: Radioligand (CPM ± SD), Non-Decay Corrected (DNA of IMR-32 cells; 30 mins): 128 ± 28 CPM; Radioligand (CPM ± SD), Non-Decay Corrected (DNA of IMR-32 cells; 60 mins): 152 ± 165 CPM; Radioligand (CPM ± SD), Non-Decay Corrected (DNA of IMR-32 cells; 180 mins): 291 ± 44 CPM; Radioligand (CPM ± SD), Non-Decay Corrected (DNA of IMR-32 cells; 1440 mins): 264 ± 104 CPM; Radioligand (CPM ± SD), Non-Decay Corrected (DNA of IMR-32 cells; 2880 mins): 624 ± 59 CPM; Binding to Cellular DNA, IMR-32 CELLS Untreated (CPM), Mean + S.D. (DNA of IMR-32 cells; [2]): 12,066 ± 2273 CPM; Binding to Cellular DNA, IMR-32 CELLS Protease Treated (CPM) (DNA of IMR-32 cells; 100µg DNA, proteinase-K 1 hour 37°C, single replicate experiments): 10,276 CPM and 9.564 CPM and 12,648 CPM; Binding to Cellular DNA, IMR-32 CELLS Protease Treated (CPM), Mean + S.D. (DNA of IMR-32 cells; [3]): 10,829 ± 1614 CPM; Binding to Cellular DNA, IMR-32 CELLS Untreated (CPM) (DNA of IMR-32 cells; [4]): 11,512 CPM and 10,122 CPM and 14,566 CPM; total bound CPM removed by the protease treatment (DNA of IMR-32 cells; DNA of IMR-32 cells, proteinase-K): 10-13%; % Specifically Bound (DNA of IMR-32 cells; 30 mins): 35%; CPM Specifically Bound (Difference), Non-Decay Corrected (DNA of IMR-32 cells; 30 mins): 45 CPM; Radioligand (CPM ± SD), Decay Corrected Values (DNA of IMR-32 cells; 30 mins): 128 ± 28 CPM; SPM Specifically Bound (Difference), Decay Corrected Values (DNA of IMR-32 cells; 30 mins): 45 CPM; % Specifically Bound (DNA of IMR-32 cells; 60 mins): 45%; CPM Specifically Bound (Difference), Non-Decay Corrected (DNA of IMR-32 cells; 60 mins): 69 CPM; Radioligand (CPM ± SD), Decay Corrected Values (DNA of IMR-32 cells; 60 mins): 157 ± 165 CPM; SPM Specifically Bound (Difference), Decay Corrected Values (DNA of IMR-32 cells; 60 mins): 69 CPM; % Specifically Bound (DNA of IMR-32 cells; 180 mins): 43%; CPM Specifically Bound (Difference), Non-Decay Corrected (DNA of IMR-32 cells; 180 mins): 126 CPM; Radioligand (CPM ± SD), Decay Corrected Values (DNA of IMR-32 cells; 180 mins): 291 ± 44 CPM; SPM Specifically Bound (Difference), Decay Corrected Values (DNA of IMR-32 cells; 180 mins): 126 CPM; % Specifically Bound (DNA of IMR-32 cells; 1440 mins): 67%; CPM Specifically Bound (Difference), Non-Decay Corrected (DNA of IMR-32 cells; 1440 mins): 177 CPM; Radioligand (CPM ± SD), Decay Corrected Values (DNA of IMR-32 cells; 1440 mins): 338 ± 133 CPM; SPM Specifically Bound (Difference), Decay Corrected Values (DNA of IMR-32 cells; 1440 mins): 226 CPM; % Specifically Bound (DNA of IMR-32 cells; 2880 mins): 67%; CPM Specifically Bound (Difference), Non-Decay Corrected (DNA of IMR-32 cells; 2880 mins): 421 CPM; Radioligand (CPM ± SD), Decay Corrected Values (DNA of IMR-32 cells; 2880 mins): 1023 ± 97 CPM; SPM Specifically Bound (Difference), Decay Corrected Values (DNA of IMR-32 cells; 2880 mins): 690 CPM; Radioligand + Unlabeled Ligand (CPM ± SD), Decay Corrected Values (DNA of IMR-32 cells; 30 mins): 83 ± 12 CPM; Radioligand + Unlabeled Ligand (CPM ± SD), Non-Decay Corrected (DNA of IMR-32 cells; 30 mins): 83 ± 12 CPM; Radioligand + Unlabeled Ligand (CPM ± SD), Decay Corrected Values (DNA of IMR-32 cells; 60 mins): 83 ± 1 CPM; Radioligand + Unlabeled Ligand (CPM ± SD), Non-Decay Corrected (DNA of IMR-32 cells; 60 mins): 83 ± 1 CPM; Radioligand + Unlabeled Ligand (CPM ± SD), Decay Corrected Values (DNA of IMR-32 cells; 180 mins): 165 ± 15 CPM; Radioligand + Unlabeled Ligand (CPM ± SD), Non-Decay Corrected (DNA of IMR-32 cells; 180 mins): 165 ± 15 CPM; Radioligand + Unlabeled Ligand (CPM ± SD), Decay Corrected Values (DNA of IMR-32 cells; 1440 mins): 112 ± 8 CPM; Radioligand + Unlabeled Ligand (CPM ± SD), Non-Decay Corrected (DNA of IMR-32 cells; 1440 mins): 87 ± 6 CPM; Radioligand + Unlabeled Ligand (CPM ± SD), Decay Corrected Values (DNA of IMR-32 cells; 2880 mins): 332 ± 33 CPM; Radioligand + Unlabeled Ligand (CPM ± SD), Non-Decay Corrected (DNA of IMR-32 cells; 2880 mins): 203 ± 20 CPM; Radioligand (CPM ± SD), Non-Decay Corrected (DNA of SKNSH cells; 60 minutes): 85 ± 8 CPM; Radioligand (CPM ± SD), Non-Decay Corrected (DNA of SKNSH cells; 4320 minutes): 232 ± 10 CPM; Radioligand (CPM ± SD), Non-Decay Corrected (DNA of SKNSH cells; […]): 87 ± 1 CPM; Binding to Cellular DNA, SKNSH CELLS Untreated (CPM), Mean + S.D. (DNA of SKNSH cells; [2]): 285 ± 56 CPM; Binding to Cellular DNA, SKNSH CELLS Protease Treated (CPM), Mean + S.D. (DNA of SKNSH cells; [3]): 247 ± 149 CPM; Binding to Cellular DNA, SKNSH CELLS Untreated (CPM) (DNA of SKNSH cells; [4]): 316 CPM and 319 CPM; % Specifically Bound (DNA of SKNSH cells; 60 minutes): 0%; CPM Specifically Bound (Difference), Non-Decay Corrected (DNA of SKNSH cells; 60 minutes): -6 CPM; CPM Specifically Bound (Difference), Non-Decay Corrected (DNA of SKNSH cells; 4320 minutes): +58 CPM; Radioligand + Unlabeled Ligand (CPM ± SD), Non-Decay Corrected (DNA of SKNSH cells; 60 minutes): 91 ± 25 CPM; Radioligand + Unlabeled Ligand (CPM ± SD), Non-Decay Corrected (DNA of SKNSH cells; 4320 minutes): 174 ± 41 CPM; % Specifically Bound (DNA of SKNSH cells; […]): 8%; CPM Specifically Bound (Difference), Non-Decay Corrected (DNA of SKNSH cells; […]): +7 CPM; infusion ratio relative to the bolus ratio ([1]; Infusion 1): 3 fold; infusion ratio relative to the bolus ratio ([1]; Infusion 2): 4 fold; infusion ratio relative to the bolus ratio ([1]; Infusion 3): 5 fold; highest ratio relative to the highest ratio from the bolus injection ([1]; Infusion Dose 1, after the first 24 hr infusion): almost five times higher; tumor foci identifiable by gamma scintigraphy ([1]; Infusion Dose 3, gamma camera scintigraphy): still identifiable by gamma scintigraphy thirteen days after completion of the last infusion dose
